Results on 2 molecules are retold here after patent publication US20250352395A1, “ANTIMICROBIAL HEMOSTATIC DEVICES AND METHODS OF USE AND MAKING” (TELEFLEX LIFE SCIENCES II LLC, priority 2024, published 2025).

Data set [1] relates to whole sheep blood. Kind of data set: Tilt Tube Clot Test. In kind it is biochemical. As to conditions: Example 3. The protocol:
Beakers containing the mixtures were placed on a magnetic stirrer with a stirring rod placed therein. The stir plate was set to 300 RPM. Once the mixture appeared uniform, 130 μL of the mixture was pipetted into each of the appropriately labeled tubes. 20 samples per concentration were used. The samples were tested in a Tilt Tube Clot Test method described below. A water bath was prepared to 37±1° C., and a test tube holder was placed therein. One mL of whole sheep blood at 37° C. was pipetted into each test tube. 150 μL of CaCl2 at 37° C. was then pipetted into a tube and a timer was then started (time “0”). Tubes were capped and gently shaken twice to ensure that the CaCl2 was completely mixed with the blood, and then placed in the water bath. Tubes were tilted by 90° at 15 second intervals, beginning when the timer reads 45 seconds. The time to clot was determined by visual inspection and the clot time was recorded. A clot is defined as a solid mass that may or may not adhere to bottom of test tube. The average clot time for control blood and hemostatic agents was then calculated. […] Samples from Tests 11-13 and Test 10 from Example 2 were then further separated into 0.5″ by 0.5″ squares and added to test tubes. A Tilt Tube Clot Test, as described in Example 1, was performed.

A short description of data set [2]: Appearance of coated gauze after drying at 80° C. for 24 hours. In kind it is physicochemical. The note with it: exposure to 80° C. for 24 hours. The protocol:
To coat the gauze, 20 mL of the coating mixture was poured into a flatbottom glass dish and then the gauze dipped into the mixture. The gauze was then lifted and allowed to drip. The coated gauze was placed on the wire rack and dried at 80° C. for 24 hrs. After drying was complete, samples were taken from the oven and remeasured for weight and moisture.
After coating, there were noticeable white clumps on the gauze.

Data set [3] in a line: Observation of salt dissolution in DI water during coating. In kind it is physicochemical. The note with it: Example 3 coating mixture, 0.39 g in 100 mL DI water.

Where a name gives a salt, the structure may show the parent alone.

Take `CC(=O)O.CC(=O)O.NC(=N\CCCCCC/N=C(N)/N=C(\N)Nc1ccc(Cl)cc1)/N=C(\N)Nc1ccc(Cl)cc1` [CHA, Chlorhexidine diacetate]: the clot time in data set [1] (tested concentrations for CHA (300 and 50 μg/cm^2 targeted)) is not below 150 s. In addition, the appearance after drying result in data set [2] is “discolored, turning a yellow/orange”.

With `[H]/N=C(\N/C(=N/[H])NCCCCCCNC(=N)NC(=N)Nc1ccc(Cl)cc1)Nc1ccc(Cl)cc1` [CHD, Chlorhexidine dihydrochloride], the clot time entry in data set [1] (estimated 300 μg/cm^2, at some individual data points) is given as “less than 150 seconds”. Further, the “dissolution in DI water” value in data set [3] is “did not dissolve”.
